“And” between values parts separate entries of the source, which are not always exact repeats. Equal values may be shown once.
Assays:
[1] = biological target: T1, Human SST5 somatostatin receptor (SSTR5) (Homo sapiens, UniProt P35346); assay: Filter plate assay for SST5 receptor, displacement of [125I]SST-14; format: binding
T1 construct: expressed in transfected cells; host or cells: HEK-293 EBNA
Procedure, shortened: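 HEK-293 EBNA membranes expressing human SST5 (5.5 μg) incubated 60 min at 25 °C with 4 nM [125I]SST-14 and compound in pH 7.5 Tris/EGTA/MgCl2/sucrose buffer. Bound radioactivity collected on PEI-coated glass fiber filters and counted; triplicate 1:5 dilution series from 125 μM, non-specific binding with excess cold ligand.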

3T3 cell line = assay: Cell proliferation assay (CellTiter 96 AQueous One) as indicator of toxicity, 3T3; format: cell-based; details: 3T3, 100 μM
Experimental: A simple cell proliferation assay was used to determine the in vitro cytotoxicity of “compound 1.” Selected cell lines were cultured according to their specific requirements. The optimal cell density required for each cell line was determined. All compounds were tested at a single concentration in triplicate. Cell viability was determined using the CellTiter 96® AQueous One reagent from Promega Corporation.
Assays are performed by adding the test compound to the cells in culture and incubating the cells for a fixed period. The number of viable cells remaining after the incubation period is determined by adding a small amount of the CellTiter 96® AQueous One Solution Reagent directly to culture wells, incubating for 1-4 hours and then recording absorbance at 490 nm with a 96 well plate reader.
Controls in the assay include untreated cells, wells without cells and cells treated with know cytotoxic agents. Data is presented as % inhibition of cell proliferation.

[2] = test system: chicken embryo chorioallantoic membrane (CAM) vasculature; assay: Early chicken embryo chorioallantoic membrane (earlyCAM) assay; format: in vivo; details: for Aretry length (pixels) / CAM increase (fold) / Relative artery length (absolute vessel length (pixels)/CAM area (pixels)) / Relative total vessel length (absolute vessel length (pixels)/CAM area (pixels)) / Relative vein length (absolute vessel length (pixels)/CAM area (pixels)) / Total vessel length (pixels) / Vein diameter (pixels) / Vein length (pixels): mean ± SEM, n = 8
Experimental: Vein diameter was included as a measure of vessel growth. Where there was more than one major vein branch, the diameters of both were added together to give a total vein diameter. In the control CAM there were two well developed vein branches of similar diameter. In contrast, in the treated CAM there was a single major vein branch. Total vein diameter is 239 pixels in the control CAM, and only 107 pixels in the treated CAM.
When “compound 1” was applied to the CAM, there were dose responsive reductions in CAM growth and vasculature. The effects on CAM growth and vessel parameters were expressed as pixel measures (Table 1) and also as a percentage of the vehicle treated control group (FIG. 1). Vein lengths were reduced at all dose levels of “compound 1”, both in pixel and percentage terms, with a reduction to 67% of control at 5 nmol (p<0.05). […] When artery and vein lengths were combined to give total vessel length there was a significant reduction at the 5 nmol level (FIG. 1; p<0.05). A strong trend to reduced CAM growth with increasing doses of “compound 1” was also present.

T1 sequence (P35346 whole entry): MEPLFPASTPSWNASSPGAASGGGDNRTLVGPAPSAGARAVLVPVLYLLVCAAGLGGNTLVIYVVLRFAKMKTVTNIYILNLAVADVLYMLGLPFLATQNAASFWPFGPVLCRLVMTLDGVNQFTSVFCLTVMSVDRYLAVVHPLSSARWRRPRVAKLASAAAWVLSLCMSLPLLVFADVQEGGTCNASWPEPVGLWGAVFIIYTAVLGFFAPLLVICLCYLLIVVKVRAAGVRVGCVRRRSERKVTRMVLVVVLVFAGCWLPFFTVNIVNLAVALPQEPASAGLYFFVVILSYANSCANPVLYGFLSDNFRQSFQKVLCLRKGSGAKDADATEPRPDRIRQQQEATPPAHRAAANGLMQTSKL

## COC[C@H]1O[C@H](OCCc2ccccc2)[C@H](NC(=O)CCCN)[C@@H](OCc2ccc3ccccc3c2)[C@@H]1O [Compound 1]
[1]; concentration required to displace 50% of the competitive radioligand, read-out: IC50 SSTR5
  IC50: 322 nM
[1]; normalized IC50: lowest IC50 for a compound = 1
  selectivity SSTR5: 1
[1]; slope of binding curve
  Hillslope SSTR5: 0.71
3T3 cell line
  Inhibition of cell proliferation: no inhibitory effect
[2]; 0.2 nmol
  Aretry length (pixels): 1870 ± 109^ pixels
  CAM increase (fold): 9.9 ± 0.9 fold
  Relative artery length (absolute vessel length (pixels)/CAM area (pixels)): 43.0 ± 3.7
  Relative total vessel length (absolute vessel length (pixels)/CAM area (pixels)): 79.9 ± 5.8
  Relative vein length (absolute vessel length (pixels)/CAM area (pixels)): 36.9 ± 3.4
  Total vessel length (pixels): 3498 ± 222^ pixels
  Vein diameter (pixels): 191 ± 10 pixels
  Vein length (pixels): 1628 ± 183^ pixels
[2]; 1 nmol
  Artery length as percentage of vehicle treated control (maximal reduction): 86 % of control
  Aretry length (pixels): 1544 ± 214^ pixels
  CAM increase (fold): 9.9 ± 0.8 fold
  Relative artery length (absolute vessel length (pixels)/CAM area (pixels)): 34.7 ± 4.7
  Relative total vessel length (absolute vessel length (pixels)/CAM area (pixels)): 71.3 ± 6.3
  Relative vein length (absolute vessel length (pixels)/CAM area (pixels)): 36.5 ± 2.4
  Total vessel length (pixels): 3169 ± 341^ pixels
  Vein diameter (pixels): 187 ± 15 pixels
  Vein length (pixels): 1625 ± 166^1 pixels
[2]; 5 nmol
  Reduction in vein diameter versus control: approximately 25%
  Aretry length (pixels): 1510 ± 196^ pixels
  CAM increase (fold): 8.9 ± 0.8 fold
  Relative artery length (absolute vessel length (pixels)/CAM area (pixels)): 36.4 ± 3.0
  Relative total vessel length (absolute vessel length (pixels)/CAM area (pixels)): 71.6 ± 3.7
  Relative vein length (absolute vessel length (pixels)/CAM area (pixels)): 35.1 ± 2.6
  Total vessel length (pixels): 2939 ± 292^1 pixels
  Vein length (pixels): 1429 ± 141^1 pixels
[2]; 5 nmol, p = 0.057
  Vein diameter (pixels): 157 pixels and 157 ± 23 pixels
[2]; 5 nmol, p<0.05
  Vein length as percentage of vehicle treated control: 67 % of control
[2]; single treated CAM (control CAM 239 pixels), dose not stated
  Total vein diameter: 107 pixels

Source: patent US20080280837A1, “Biologically Active Compounds with Anti-Angiogenic Properties” (priority 2004, published 2008)
